According to US9512175B2, “Macrocyclic inhibitors of flaviviridae viruses” (Gilead Sciences, Inc., priority 2012, dated 2016):

What was measured:
cyclophilin A = cyclophilin A (Homo sapiens, UniProt P62937); assay: Cyclophilin A TR-FRET competitive binding assay; details: IC50 ranges; competition with CsA-Cy5 for His-tagged CypA, two-hour incubation; read-out: TR-FRET
Protocol: Cyclophilin A TR-FRET Competitive Binding Assay
Inhibitor potency was measured using a competitive binding assay with a time-resolved fluorescence resonance energy transfer (TR-FRET) readout. […] An IC50 value was calculated using a four-parameter logistic fit.

[1] = test system: HCV replicon (Replicon 1a); assay: anti-HCV activity in Huh-7 cell line harboring a HCV replicon (Replicon 1a); type: cell-based; details: human hepatoma Huh-7 HCV replicon cells, 3 days, luciferase readout; for inhibition at 1 µM: Hepatitis C virus, Huh-7, 72 h, read-out: Replicon 1a % inhibition at 1 μM, 1 μM

Chain of cyclophilin A (P62937 whole entry, species assumed): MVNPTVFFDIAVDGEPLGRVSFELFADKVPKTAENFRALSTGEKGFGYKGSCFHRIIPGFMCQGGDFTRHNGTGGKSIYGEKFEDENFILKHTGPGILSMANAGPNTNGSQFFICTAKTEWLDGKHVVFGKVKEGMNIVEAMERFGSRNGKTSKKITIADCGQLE

| Structure (SMILES) | IC50 (cyclophilin A) | Replicon 1a % inhibition at 1 μM [1] | inhibition at 1 µM [1] |
| --- | --- | --- | --- |
| COC1CCC=Cc2cccc(c2)C2CCCCN2C(=O)C2CCCN(N2)C(=O)C(C)NC(=O)C(C(C)C)NC(=O)C1C (single isomer, unassigned) [Compound 29] | 1000 to 10000 nM | 28% |  |
| COC1CCC=Cc2cccc(c2)C2CCCCN2C(=O)C2CCCN(N2)C(=O)C(C)NC(=O)C(C(C)C)NC(=O)C1C (single isomer, unassigned) [Compound 30] | < 100 nM | 73% |  |
| CO[C@@H]1/C=C/c2cc3cc(ccc3cn2)[C@@H](C)OC(=O)[C@]2(C)CCCN(N2)C(=O)[C@H](C)NC(=O)[C@H](C(C)C)NC(=O)[C@@H]1C (single isomer, unassigned) [Compound 34] | < 100 nM |  | 92% |
| CC(C)[C@@H]1NC(=O)C(C)(C)COc2cc3cc(ccc3cn2)[C@@H](C)OC(=O)[C@@H]2CCCN(N2)C(=O)[C@H](C)NC1=O (single isomer, unassigned) [Compound 68] | < 100 nM |  | 91% |
| CC(C)[C@@H]1NC(=O)C(C)(C(C)O)/C=C/c2ccc3ccc(nc3c2)[C@@H](C)OC(=O)[C@@H]2CCCN(N2)C(=O)[C@H](C)NC1=O (single isomer, unassigned) [Compound 87] | < 100 nM |  |  |
| COCCC1(C)/C=C/c2ccc3ccc(nc3c2)[C@@H](C)OC(=O)[C@@H]2CCCN(N2)C(=O)[C@H](C)NC(=O)[C@H](C(C)C)NC1=O (single isomer, unassigned) [Compound 102] | < 100 nM |  | 100% |
| COCCC1(C)/C=C/c2ccc3ccc(nc3c2)[C@@H](C)OC(=O)[C@@H]2CCCN(N2)C(=O)[C@H](C)NC(=O)[C@H](C(C)C)NC1=O (single isomer, unassigned) [Compound 103] | < 100 nM |  | 100% |
| CC(C)[C@@H]1NC(=O)C(C)(C)/C=C/c2ccc3ccc(nc3c2)[C@@H](C)OC(=O)[C@@H]2CCCN(N2)C(=O)[C@H](CC2CCOCC2)NC1=O (single isomer, unassigned) [Compound 112] | < 100 nM |  | 96% |
| CC(C)[C@@H]1NC(=O)C(C)(C)/C=C/c2ccc3ccc(nc3c2)[C@@H](C)OC(=O)[C@@H]2CCCN(N2)C(=O)C(CC2CCOCC2)NC1=O (single isomer, unassigned) [Compound 113] | 101 to 1000 nM |  | 13% |
| COC[C@@H]1NC(=O)[C@H](C(C)C)NC(=O)C(C)(C)/C=C/c2ccc3ccc(nc3c2)[C@@H](C)OC(=O)[C@@H]2CCCN(N2)C1=O (single isomer, unassigned) [Compound 117] | < 100 nM |  | 100% |
| CC(C)[C@@H]1NC(=O)C(C)(C)/C=C/c2ccc3ccc(nc3c2)[C@H]2CCCN2C(=O)[C@@H]2CCCN(N2)C(=O)[C@H](C)NC1=O (single isomer, unassigned) [Compound 150] | < 100 nM |  | 95% |
| CC(C)[C@@H]1NC(=O)C(C)(C)/C=C/c2ccc3ccc(nc3c2)[C@@H]2CCCN2C(=O)[C@@H]2CCCN(N2)C(=O)[C@H](C)NC1=O (single isomer, unassigned) [Compound 151] | 1000 to 10000 nM |  | 0% |
| CC(C)[C@@H]1NC(=O)[C@H](C)[C@H](O)CC/C=C/c2cccc(c2)[C@@H](C)NC(=O)[C@@H]2CCCN(N2)C(=O)[C@H](C)NC1=O [Compound 1, (E)-(2R,5S,11S,14S,17R,18R)-18-Hydroxy-14-isopropyl-2,11,17-trimethyl-3,9,12,15,28-pentaaza-tricyclo[21.3.1.1*5,9*]octacosa-1(26),21,23(27),24-tetraene-4,10,13,16-tetraone] | < 100 nM |  | 32% |
| CC(C)[C@@H]1NC(=O)[C@H](C)[C@H](OCC(F)(F)F)CC/C=C/c2cccc(c2)[C@@H](C)NC(=O)[C@@H]2CCCN(N2)C(=O)[C@H](C)NC1=O [Compound 2, (E)-(2R,5S,11 S,14S,17R,18R)-14-Isopropyl-2,11,17-trimethyl-18-(2,2,2-trifluoro-ethoxy)-3,9,12,15,28-pentaaza-tricyclo[21.3.1.1*5,9*]octacosa-1(26),21,23(27),24-tetraene-4,10,13,16-tetraone] | 101 to 1000 nM |  | 63% |
| CC(C)[C@@H]1NC(=O)[C@H](C)[C@H](O)CCCCc2cccc(c2)[C@@H](C)NC(=O)[C@@H]2CCCN(N2)C(=O)[C@H](C)NC1=O [Compound 3, (2R,5S,11S,14S,17R,18R)-18-Hydroxy-14-isopropyl-2,11,17-trimethyl-3,9,12,15,28-pentaaza-tricyclo[21.3.1.1*5,9*]octacosa-1(26),23(27),24-triene-4,10,13,16-tetraone] | < 100 nM |  | 44% |
| CC(C)[C@@H]1NC(=O)CCC(C)(C)C/C=C/c2cccc(c2)[C@@H](C)NC(=O)[C@@H]2CCCN(N2)C(=O)[C@H](C)NC1=O [Compound 4] | 101 to 1000 nM |  | 58% |
| CO[C@@H]1/C=C/c2cc3cc(ccc3cn2)[C@@H](C)NC(=O)[C@@H]2CCCN(N2)C(=O)[C@H](C)NC(=O)[C@H](C(C)C)NC(=O)[C@@H]1C [Compound 5] | < 100 nM |  | 80% |
| CO[C@@H]1CCc2cc3cc(ccc3cn2)[C@@H](C)NC(=O)[C@@H]2CCCN(N2)C(=O)[C@H](C)NC(=O)[C@H](C(C)C)NC(=O)[C@@H]1C [Compound 6] | < 100 nM |  | 86% |
| CC(C)[C@@H]1NC(=O)C/C=C/c2ccc3ncc(nc3c2)[C@@H](C)OC(=O)[C@@H]2CCCN(N2)C(=O)[C@H](C)NC1=O [Compound 7] | < 100 nM |  | 94% |
| CC(C)[C@@H]1NC(=O)CCCc2cc3cc(ccc3cn2)[C@@H](C)OC(=O)[C@@H]2CCCN(N2)C(=O)[C@H](C)NC1=O [Compound 10] |  |  | 28% |
| CC(C)[C@@H]1NC(=O)C/C=C/c2cc3cc(ccc3cn2)[C@@H](C)NC(=O)[C@@H]2CCCN(N2)C(=O)[C@H](C)NC1=O [Compound 11] | < 100 nM |  | 6% |

| Structure (SMILES) | IC50 (cyclophilin A) | Replicon 1a % inhibition at 1 μM [1] | inhibition at 1 µM [1] |
| --- | --- | --- | --- |
| CC(C)[C@@H]1NC(=O)/C=C\c2cc3cc(ccc3cn2)[C@@H](C)NC(=O)[C@@H]2CCCN(N2)C(=O)[C@H](C)NC1=O [Compound 12] |  |  | 0% |
| CC(C)[C@@H]1NC(=O)C/C=C/c2ccc3ccc(nc3c2)[C@@H](C)OC(=O)[C@@H]2CCCN(N2)C(=O)[C@H](C)NC1=O [Compound 24] |  |  | 99% |
| CC(C)[C@@H]1NC(=O)[C@@H]([C@H](C)O)/C=C/c2ccc3ccc(nc3c2)[C@@H](C)OC(=O)[C@@H]2CCCN(N2)C(=O)[C@H](C)NC1=O [Compound 31] |  |  | 98% |
| C[C@@H]1NC(=O)[C@H](CCN=[N+]=[N-])NC(=O)C(C)(C)/C=C/c2cc3cc(ccc3cn2)[C@@H](C)OC(=O)[C@@H]2CCCN(N2)C1=O [Compound 49] | < 100 nM |  |  |
| C#CC[C@@H]1NC(=O)C(C)(C)/C=C/c2cc3cc(ccc3cn2)[C@@H](C)OC(=O)[C@@H]2CCCN(N2)C(=O)[C@H](C)NC1=O [Compound 51] | < 100 nM |  |  |
| CC(C)[C@@H]1NC(=O)C2(/C=C/c3cc4cc(ccc4cn3)[C@@H](C)OC(=O)[C@@H]3CCCN(N3)C(=O)[C@H](C)NC1=O)CC2 [Compound 58] | < 100 nM |  |  |
| CC(C)[C@@H]1NC(=O)C2(/C=C/c3cc4cc(ccc4cn3)[C@@H](C)OC(=O)[C@@H]3CCCN(N3)C(=O)[C@H](C)NC1=O)CCOCC2 [Compound 59] | < 100 nM |  |  |
| CC(C)[C@@H]1NC(=O)CCC/C=C/c2cc3cc(ccc3cn2)[C@@H](C)OC(=O)[C@@H]2CCCN(N2)C(=O)[C@H](C)NC1=O [Compound 61] |  |  | 72% |
| CC(C)[C@@H]1NC(=O)CCCC/C=C/c2cc3cc(ccc3cn2)[C@@H](C)OC(=O)[C@@H]2CCCN(N2)C(=O)[C@H](C)NC1=O [Compound 63] |  |  | 80% |
| CC(C)[C@@H]1NC(=O)C(C)(C)/C=C/c2cc3cc(cnc3cn2)[C@@H](C)OC(=O)[C@@H]2CCCN(N2)C(=O)[C@H](C)NC1=O [Compound 66] | < 100 nM |  |  |
| CC(C)[C@@H]1NC(=O)CCCc2ccc3ccc(cc3c2)[C@@H](C)OC(=O)[C@@H]2CCCN(N2)C(=O)[C@H](C)NC1=O [Compound 71] | 101 to 1000 nM |  |  |
| CC(C)[C@@H]1NC(=O)C(C)(C)CCc2cc3cc(ccc3cn2)[C@@H](C)OC(=O)[C@@H]2CCCN(N2)C(=O)[C@H](C)NC1=O [Compound 74] |  |  | 95% |
| CC(C)[C@@H]1NC(=O)C2(/C=C/c3ccc4ccc(nc4c3)[C@@H](C)OC(=O)[C@@H]3CCCN(N3)C(=O)[C@H](C)NC1=O)COC(C)(C)OC2 [Compound 75] | < 100 nM |  |  |
| CC(C)[C@@H]1NC(=O)C(C)(C2CCOC2)/C=C/c2ccc3ccc(nc3c2)[C@@H](C)OC(=O)[C@@H]2CCCN(N2)C(=O)[C@H](C)NC1=O (stereo partly drawn) [Compound 116] | < 100 nM |  |  |
| CC(C)[C@@H]1NC(=O)C2(/C=C/c3ccc4ccc(nc4c3)[C@@H](C)OC(=O)[C@@H]3CCCN(N3)C(=O)[C@H](C)NC1=O)CCC(F)(F)CC2 [Compound 121] | < 100 nM |  |  |
| CC(C)[C@@H]1NC(=O)C2(/C=C/c3ccc4ccc(nc4c3)[C@@H](C)OC(=O)[C@@H]3CCCN(N3)C(=O)[C@H](C)NC1=O)CCN(Cc1ccccc1)CC2 [Compound 128] | < 100 nM |  |  |
| COc1cc2nc3cc(ccc13)/C=C/C(C)(C)C(=O)N[C@@H](C(C)C)C(=O)N[C@@H](C)C(=O)N1CCC[C@H](N1)C(=O)O[C@@H]2C [Compound 139] | < 100 nM |  |  |
| CC(C)[C@@H]1NC(=O)C(C)(C)/C=C/c2ccc3c(C#N)cc(nc3c2)[C@@H](C)OC(=O)[C@@H]2CCCN(N2)C(=O)[C@H](C)NC1=O [Compound 140] | 101 to 1000 nM |  |  |
| CC(C)[C@@H]1NC(=O)C([C@H](C)O)/C=C/c2ccc3ccc(cc3c2)[C@@H](C)OC(=O)[C@@H]2CCCN(N2)C(=O)[C@@H](C)NC1=O (stereo partly drawn) [Compound 145] | < 100 nM |  |  |
| Cc1c2ccc3c(Cl)cc(nc13)[C@@H](C)OC(=O)[C@@H]1CCCN(N1)C(=O)[C@H](C)NC(=O)[C@H](C(C)C)NC(=O)C(C)(C)/C=C/2 [Compound 164] | < 100 nM |  |  |
